The results in this text go back to patent US12022827B2, “Compositions and methods to reduce dicamba volatility and provide plant essential nutrients” (THE BOARD OF TRUSTEES OF THE UNIVERSITY OF ARKANSAS, priority 2019, dated 2024).

Data set [1] has as its system soybean glufosinate-resistant cultivar (CDZ 4938). As to the kind of experiment: Low-tunnel field trial of dicamba volatilization, visible injury to soybean bioindicator (2020). Format: in vivo. As to the method:
To further evaluate the efficacy of potassium tetraborate tetrahydrate in reducing volatilization of dicamba, a series of low-tunnel trials were conducted in Fayetteville, Arkansas in 2020, with each trial replicated twice. Experimental treatments were arranged as a single-factor randomized complete block design with three replications. […] A glufosinate-resistant cultivar (CDZ 4938) was planted on 36-inch spaced rows, serving as a bioindicator to quantify visible injury and distance traveled caused by dicamba volatility. Each low-tunnel placed in the field measured 5 by 20 ft (covering two rows of soybean). All tunnels were covered with transparent plastic to create an environment suitable for volatility and to contain the injury. After all tunnels were placed in the field, moistened flats of soil were placed 0.5 miles from the field and treated. Once treated, two flats were placed into appropriate tunnels between two rows of soybean with one flat on either side of a high-volume air sampler located in the center of each tunnel for 48 hours. Afterwards, the flats of soil, air samplers and tunnels were removed from the field. Immediately following trial initiation, pH of each spray solution was collected and analyzed. For data collection, soybean under each tunnel were divided into […] of 5 foot in length where visible injury was assessed on a 0 to 100 scale, where 0 equals no injury and 100 equals plant death. […] All data were subjected to analysis of variance and means separated using Fisher's protected least significance test (α=0.05)

The nature of data set [2]: pH of tank mix, 2019 field trial. Format: physicochemical. As to the method:
(§1) A field trial was conducted to determine the effect of adding potassium borate to the herbicide dicamba with respect to the volatilization of dicamba and the movement of dicamba within the environment. In this trial, potassium borate was added to two highly volatile formulations of dicamba, Clarity® (BASF) and Clash™ (Nufarm Americas, Inc), in combination with glyphosate (Roundup PowerMax II®). […] The formulations were applied to a moistened silt loam soil in contained in two plastic trays and placed under 20-foot long tunnels between two rows of dicamba-sensitive (i.e., non-tolerant) soybean crop. […] Soybean injury was visually assessed at 14 and 21 days after initiation of the experiment. Likewise, the distance from the center of the tunnel to the furthest observed 5% level of injury was measured. Air samplers in the center of each tunnel were also used to quantify dicamba volatilization. […]
(§2) In order to evaluate a proprietary volatility reducing agent on several dicamba formulations, two low-tunnel trials were conducted in Fayetteville, Arkansas in 2019. […] Dicamba products evaluated included the diglycolamine (DGA) salt of dicamba (Xtendimax) plus a commercial volatility reduction agent (VaporGrip), DGA salt of dicamba (Clarity) with the volatility reduction agent BK3O3, the dimethylamine (DMA) salt of dicamba (Vanquish), and the DMA salt with BK3O3 along with a nontreated. […]

Data set [3] has as its system dicamba-sensitive soybean. Nature of the data set: Low-tunnel field trial of dicamba volatilization, injury to dicamba-sensitive soybean (2019). Format: in vivo. The following applies: FIG. 1. As to the method:
as §1, §2

For data set [4] the following is noted: Kborate concentration of 0.025 molar, even when mixed with the potassium salt of glyphosate. Here is the method: To further evaluate the efficacy of potassium tetraborate tetrahydrate in reducing volatilization of dicamba, a series of low-tunnel trials were conducted in Fayetteville, Arkansas in 2020, with each trial replicated twice. Experimental treatments were arranged as a single-factor randomized complete block design with three replications. […] A glufosinate-resistant cultivar (CDZ 4938) was planted on 36-inch spaced rows, serving as a bioindicator to quantify visible injury and distance traveled caused by dicamba volatility. Each low-tunnel placed in the field measured 5 by 20 ft (covering two rows of soybean). All tunnels were covered with transparent plastic to create an environment suitable for volatility and to contain the injury. After all tunnels were placed in the field, moistened flats of soil were placed 0.5 miles from the field and treated. Once treated, two flats were placed into appropriate tunnels between two rows of soybean with one flat on either side of a high-volume air sampler located in the center of each tunnel for 48 hours. […] Immediately following trial initiation, pH of each spray solution was collected and analyzed. For data collection, soybean under each tunnel were divided into eight quadrants of 5 foot in length where visible injury was assessed on a 0 to 100 scale, where 0 equals no injury and 100 equals plant death. […]

As for `CP(=O)(O)CCC(N)C(=O)O` (stereo not shown) [glufosinate, 2-amino-4-[hydroxy(methyl)phosphoryl]butanoic acid, reference compound], in data set [1] (glufosinate mixed with dicamba, FIG. 11, 21 days after treatment), the “average visual injury to soybean in comparison to dicamba plus glyphosate” value is on record as “increased average visual injury”.

`[K+].[K+].[K+].[O-]B([O-])[O-]` [potassium borate]: in data set [2] (potassium borate 30 g/L added to various formulations of dicamba mixed with glyphosate), the “increase in tank mix pH” value was 1.9-2.15. Besides, the “increase of pH of tank mixes” value in data set [2] (potassium borate added to tank mixes comprising glyphosate and various formulations of dicamba) is given as no more than 2.15 pH units. The “reduction of sensitive soybean injury” value in data set [3] (potassium borate 30 g/L added, compared to standard tank mixes of dicamba or dicamba+glyphosate) is listed as no more than 18%. In addition, the “reduction of injury to sensitive soybean” value in data set [3] (potassium borate added to dicamba, compared to standard tank mixes of dicamba) is on record as no more than 18 percentage points.

Consider “potassium tetraborate tetrahydrate [Kborate]”, for which the “reducing volatility of dicamba based on injury to soybean, compared with Kacetate” value in data set [1] (0.015 molar concentration of Kborate) is recorded as “comparable to 0.05 moles of Kacetate”. In addition, the “reducing volatility of a dicamba plus glyphosate mixture, compared with Kacetate” value in data set [1] (FIGS. 8-10, 21 days after treatment) was “outperformed Kacetate”. Also, in data set [1] (Kborate added, FIGS. 11-13, 21 days after treatment), the “dicamba volatility of dicamba and glufosinate mixtures” value is “reduced dicamba volatility, more so than did Kacetate”. For the same compound, the “volatilization of a dicamba plus glyphosate mixture based on average and maximum injury ratings and distance to 5% injury to soybean” value in data set [1] (Kborate concentrations of 0.0125 molar or higher, 21 days after treatment, FIGS. 5-7) is listed as “significantly reduced volatilization”. Further, the “pH of the spray solution” value in data set [4] is given as “above 6.0”.
